In PubChem BioAssay (NCI):
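Each compound was tested at five concentrations against cells in 96-well plates for 48 hours. The concentration for 50% growth inhibition is given as GI50. TGI: concentration producing complete growth inhibition.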

Legend:
Experiment in all cases: NCI anticancer screen, dose series, 48 h; in the data active means GI50 below about 0.43 µM; inactive means the rest
[1] = test system: U251 CNS
[2] = test system: NCI-H23 lung
[3] = test system: HCC-2998 colon
[4] = test system: HCT-15 colon
[5] = test system: SF-539 CNS
[6] = test system: SN12C renal
[7] = test system: SK-OV-3 ovarian
[8] = test system: MCF7 breast
[9] = test system: OVCAR-4 ovarian
[10] = test system: DU-145 prostate
[11] = test system: BT-549 breast
[12] = test system: CAKI-1 renal
[13] = test system: OVCAR-3 ovarian
[14] = test system: MOLT-4 leukemia
[15] = test system: HT29 colon
[16] = test system: HL-60(TB) leukemia
[17] = test system: KM12 colon
[18] = test system: COLO 205 colon
[19] = test system: IGROV1 ovarian
[20] = test system: MALME-3M melanoma
[21] = test system: HOP-92 NSCLC
[22] = test system: SNB-75 CNS
[23] = test system: SNB-19 CNS
[24] = test system: NCI-H226 lung
[25] = test system: A549 NSCLC
[26] = test system: UACC-62 melanoma
[27] = test system: SK-MEL-5 melanoma
[28] = test system: K-562 leukemia
[29] = test system: PC-3 prostate
[30] = test system: RPMI-8226 leukemia
[31] = test system: M14 melanoma
[32] = test system: TK-10 renal
[33] = test system: ACHN renal
[34] = test system: SW-620 colon
[35] = test system: LOX IMVI melanoma
[36] = test system: SF-295 CNS
[37] = test system: NCI-H522 lung
[38] = test system: UO-31 renal
[39] = test system: CCRF-CEM leukemia
[40] = test system: HS 578T breast
[41] = test system: A498 renal
[42] = test system: 786-0 renal
[43] = test system: SF-268 CNS
[44] = test system: OVCAR-8 ovarian
[45] = test system: UACC-257 melanoma
[46] = test system: HCT-116 colon
[47] = test system: RXF 393 renal
[48] = test system: NCI-H460 lung
[49] = test system: HOP-62 NSCLC
[50] = test system: MDA-MB-231 breast
[51] = test system: SR leukemia

Nc1c(C(=O)Nc2ccccc2)sc2nc3c(cc12)C(O)CCC3 (stereo not given)
2.63 µM: TGI [18]
> 79.3 µM: TGI [3]
inactive: GI50 [2] 0.665 µM | GI50 [3] 1.07 µM | GI50 [6] 0.559 µM | GI50 [7] 0.439 µM | GI50 [9] 3.66 µM | GI50 [11] 1.24 µM | GI50 [14] 0.491 µM | GI50 [17] 0.44 µM | GI50 [19] 0.65 µM | GI50 [23] 0.577 µM | GI50 [24] 1.27 µM | GI50 [26] 0.444 µM | GI50 [32] > 100 µM | GI50 [33] 0.981 µM | GI50 [35] 0.638 µM | GI50 [38] 0.689 µM | GI50 [42] 0.623 µM | GI50 [43] 0.7 µM | GI50 [44] 0.471 µM | GI50 [45] > 100 µM | GI50 [46] 0.488 µM | GI50 [49] 0.455 µM | GI50 [50] 0.946 µM
23.9 µM: TGI [27]
0.604 µM: TGI [5]
0.706 µM: TGI [16]
> 100 µM: TGI [1] | TGI [2] | TGI [4] | TGI [6] | TGI [7] | TGI [8] | TGI [9] | TGI [10] | TGI [11] | TGI [12] | TGI [13] | TGI [14] | TGI [17] | TGI [19] | TGI [20] | TGI [21] | TGI [22] | TGI [23] | TGI [24] | TGI [25] | TGI [26] | TGI [28] | TGI [29] | TGI [30] | TGI [31] | TGI [32] | TGI [33] | TGI [34] | TGI [35] | TGI [36] | TGI [38] | TGI [39] | TGI [40] | TGI [41] | TGI [42] | TGI [43] | TGI [44] | TGI [45] | TGI [46] | TGI [47] | TGI [48] | TGI [49] | TGI [50] | TGI [51]
active: GI50 [1] 0.362 µM | GI50 [4] 0.336 µM | GI50 [5] 0.225 µM | GI50 [8] 0.241 µM | GI50 [10] 0.355 µM | GI50 [12] 0.349 µM | GI50 [13] 0.344 µM | GI50 [15] 0.323 µM | GI50 [16] 0.232 µM | GI50 [18] 0.295 µM | GI50 [20] 0.256 µM | GI50 [21] 0.264 µM | GI50 [22] 0.278 µM | GI50 [25] 0.406 µM | GI50 [27] 0.407 µM | GI50 [28] 0.196 µM | GI50 [29] 0.325 µM | GI50 [30] 0.372 µM | GI50 [31] 0.281 µM | GI50 [34] 0.371 µM | GI50 [36] 0.297 µM | GI50 [37] 0.28 µM | GI50 [39] 0.323 µM | GI50 [40] 0.362 µM | GI50 [41] 0.273 µM | GI50 [47] 0.349 µM | GI50 [48] 0.355 µM | GI50 [51] 0.168 µM
